The record followed here is patent US7858630B2, “D3 and 5-HT2A receptor modulators” (Hoffmann-La Roche Inc., priority 2008, dated 2010).

Test [1] deals with T1, human serotonin 5-HT2A receptor (Homo sapiens, UniProt P28223).
T1 construct: expressed in transfected cells; host or cells: HEK-293 EBNA cells, transient transfection; membrane preparation
As to the kind of experiment: Radioligand binding ([3H]-ketanserin) to membranes of HEK-293 EBNA cells expressing human 5-HT2A receptor. To be noted: 1.1 nM [3H]-ketanserin, HEK-293 EBNA membranes, 1 h at RT. As for the experimental part:
(§1) The ability of the compounds to bind to the 5-HT2A, D3 and D2 receptors was determined using radioligand binding to cloned receptors selectively expressed in HEK-293 EBNA cells.
(§2) Membrane Preparation for Human D2, Human D3 and Human 5-HT2A Receptors
(§3) HEK-293 EBNA cells were transiently transfected with expression plasmids encoding for the human D2 or D3 dopamine- or for the human 5-HT2A serotonin receptor, respectively. The cells were harvested 48 h post-transfection, washed three times with cold PBS and stored at −80° C. prior to use. The pellet was suspended in cold 50 mM Tris-HCl buffer containing 10 mM EDTA (pH 7.4) and homogenized with a Polytron (Kinematica AG, Basel, Switzerland) for 20-30 sec at 12.000 rpm. After centrifugation at 48.000×g for 30 min at 4° C., the pellet was resuspended in cold 10 mM Tris-HCl buffer containing 0.1 mM EDTA (pH 7.4), homogenized, and centrifuged as above. This pellet was further resuspended in a smaller volume of ice cold 10 mM Tris-HCl buffer containing 0.1 mM EDTA (pH 7.4) and homogenized with a Polytron for 20-30 sec at 12.000 rpm. The protein content of this homogenate was determined with the Bio-Rad (Bradford) Protein Assay (Biorad Laboratories GmbH, München, Germany) according to the instructions of the manufacturer using gamma globulin as the standard. This homogenate was stored at −80° C. in aliquots and thawed immediately prior to use.
(§4) Radioligand Binding Assay Conditions
(§5) Aliquots of membrane preparations were thawed at RT, resupended in assay buffer (D2, D3: 50 mM Tris-HCl, 120 mM NaCl, 5 mM MgCl2, 1 mM EDTA, 5 mM KCl, 1.5 mM CaCl2, pH=7.4; 5-HT2A: 50 mM Tris-HCl, 10 mM MgCl2, 1 mM EGTA, pH=7.4), homogenized with a Polytron for 20-30 sec at 12.000 rpm and adjusted to a final concentration of approximately 7.5 μg protein/well (D2, D3) and 15 μg protein/well (5-HT2A), respectively.
(§6) The binding affinity (Ki) of the compounds was determined using radioligand binding. Membranes were incubated in a total volume of 200 μl with a fixed concentration of radioligand (final concentration approximately 0.7 nM [^3H]-spiperone for D2, 0.5 nM [^3H]-spiperone for D3, and 1.1 nM [^3H]-ketanserin for 5-HT2A) and ten concentrations of test compound in ranging between 10 μM-0.1 nM for 1 h at RT. At the end of the incubation, the reaction mixtures were filtered on to unifilter 96-well white microplates with bonded GF/C filters (Packard BioScience, Zurich, Switzerland; preincubated for 1 h in 0.1% polyethylenimine (PEI) in assay buffer) with a Filtermate 196 harvester (Packard BioScience) and washed 3 times with cold assay buffer. The nonspecific binding was determined with equally composed reaction mixtures in the presence of 10 μM unlabelled spiperone. Per well 45 μl of Microscint 40 (Perkin Elmer, Schwerzenbach, Switzerland) was added, plates for sealed, shaken for 20 min and counted for 3 min on a Topcount Microplate Scintillation Counter (Canberra Packard SA, Zurich, Switzerland) with quenching correction.
(§7) The CPM value for each duplicate of a concentration of competing compound was averaged (y1), then the % specific binding was calculated according to the equation (((y1−non-specific)/(total binding-non-specific))×100). Graphs were plotted with the % specific binding using XLfit, a curve fitting program that iteratively plots the data using Levenburg Marquardt algorithm. The single site competition analysis equation used was y=A+((B−A)/(1+((x/C)^D))), where y is the % specific binding, A is the minimum y, B is the maximum y, C is the IC50, x is the log10 of the concentration of the competing compound and D is the slope of the curve (the Hill Coefficient). From these curves the IC50 (inhibition concentration at which 50% specific binding of the radioligand was displaced) and Hill coefficient were determined. […]

Test [2] concerns the target T2, human dopamine D3 receptor (Homo sapiens, UniProt P35462).
T2 construct: expressed in transfected cells; host or cells: HEK-293 EBNA cells, transient transfection; membrane preparation
Kind of test: Radioligand binding ([3H]-spiperone) to membranes of HEK-293 EBNA cells expressing human D3 receptor. To be noted: human D3, 0.5 nM [3H]-spiperone, HEK-293 EBNA membranes, 1 h at RT. Here is the method:
as §1, §2, §3, §4, §5, §6, §7

Test [3] concerns the target T3, human dopamine D2 receptor (Homo sapiens, UniProt P14416).
T3 construct: expressed in transfected cells; host or cells: HEK-293 EBNA cells, transient transfection; membrane preparation
As to the kind of experiment: Radioligand binding ([3H]-spiperone) to membranes of HEK-293 EBNA cells expressing human D2 receptor. Particulars: human D2, 0.7 nM [3H]-spiperone, HEK-293 EBNA membranes, 1 h at RT. Here is the method:
as §1, §2, §3, §4, §5, §6, §7

T3 sequence (P14416 whole entry): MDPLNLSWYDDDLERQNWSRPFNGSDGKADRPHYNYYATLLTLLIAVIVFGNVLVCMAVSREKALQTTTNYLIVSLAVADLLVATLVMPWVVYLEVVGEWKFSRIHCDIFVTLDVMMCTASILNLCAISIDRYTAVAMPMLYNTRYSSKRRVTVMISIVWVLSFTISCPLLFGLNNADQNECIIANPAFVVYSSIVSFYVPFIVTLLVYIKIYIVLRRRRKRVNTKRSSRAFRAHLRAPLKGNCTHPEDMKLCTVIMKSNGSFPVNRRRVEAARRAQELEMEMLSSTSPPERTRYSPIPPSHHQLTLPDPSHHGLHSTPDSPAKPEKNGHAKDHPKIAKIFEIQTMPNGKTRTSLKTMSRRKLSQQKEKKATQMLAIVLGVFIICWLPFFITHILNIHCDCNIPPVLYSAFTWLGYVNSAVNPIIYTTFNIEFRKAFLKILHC
T1 sequence (P28223 whole entry): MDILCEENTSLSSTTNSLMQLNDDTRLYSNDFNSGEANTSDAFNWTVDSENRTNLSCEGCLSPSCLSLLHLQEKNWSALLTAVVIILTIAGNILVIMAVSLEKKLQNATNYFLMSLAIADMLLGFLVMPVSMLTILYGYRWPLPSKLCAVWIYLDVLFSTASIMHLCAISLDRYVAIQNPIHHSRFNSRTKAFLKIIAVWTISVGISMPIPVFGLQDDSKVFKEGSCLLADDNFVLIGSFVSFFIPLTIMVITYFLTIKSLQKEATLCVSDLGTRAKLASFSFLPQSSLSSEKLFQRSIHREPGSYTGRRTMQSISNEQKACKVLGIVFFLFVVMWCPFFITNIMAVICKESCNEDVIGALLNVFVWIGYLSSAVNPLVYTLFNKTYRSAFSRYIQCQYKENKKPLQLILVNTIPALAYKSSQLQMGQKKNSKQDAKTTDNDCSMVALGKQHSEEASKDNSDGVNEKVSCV
T2 sequence (P35462 whole entry): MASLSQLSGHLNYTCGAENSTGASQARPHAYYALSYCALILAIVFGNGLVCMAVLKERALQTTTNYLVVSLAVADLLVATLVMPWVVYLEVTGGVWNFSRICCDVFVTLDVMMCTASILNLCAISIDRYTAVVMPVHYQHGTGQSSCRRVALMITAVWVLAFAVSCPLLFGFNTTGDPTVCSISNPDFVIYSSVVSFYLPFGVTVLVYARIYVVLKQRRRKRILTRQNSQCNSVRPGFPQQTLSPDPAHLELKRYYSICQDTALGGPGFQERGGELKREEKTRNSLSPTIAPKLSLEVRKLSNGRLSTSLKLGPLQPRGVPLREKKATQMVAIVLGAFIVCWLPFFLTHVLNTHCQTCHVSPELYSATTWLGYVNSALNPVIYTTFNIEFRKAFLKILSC

A word on the Ki: it is the dissociation constant of the complex between target and ligand, obtained from inhibition or displacement. For the molecule `COC(C)C(=O)N[C@H]1CC[C@H](CCN2CCN(c3noc4cc(F)c(C)cc34)CC2)CC1` (stereo partly drawn) [Example 119, N-trans-(4-{2-[4-(6-Fluoro-5-methyl-benzo[d]isoxazol-3-yl)-piperazin-1-yl]-ethyl}-cyclohexyl)-2-methoxy-propionamide], the values for the Ki in test [1], in test [2] and in test [3] were 10 nM, 53 nM and 2270 nM, respectively.

Turning to `O=C(CC1OCCCO1)N[C@H]1CC[C@H](CCN2CCN(c3noc4cc(F)c(Cl)cc34)CC2)CC1` [Example 77, N-trans-(4-{2-[4-(5-Chloro-6-fluoro-benzo[d]isoxazol-3-yl)-piperazin-1-yl]-ethyl}-cyclohexyl)-2-[1,3]dioxan-2-yl-acetamide], the Ki was determined as 2.26 nM in test [1], 6.06 nM in test [2] and 2300 nM in test [3].

As for `CCC(=O)N[C@H]1CC[C@H](CCN2CCN(c3noc4cc(F)c(F)cc34)CC2)CC1` [Example 59, N-trans-(4-{2-[4-(5,6-Difluoro-benzo[d]isoxazol-3-yl)-piperazin-1-yl]-ethyl}-cyclohexyl)-propionamide], the Ki was determined as 14.8 nM in test [1], 9.88 nM in test [2] and 389 nM in test [3].

With `CC1(CC(=O)N[C@H]2CC[C@H](CCN3CCN(c4noc5ccc(F)cc45)CC3)CC2)COC1` [Example 21, N-trans-(4-{2-[4-(5-Fluoro-benzo[d]isoxazol-3-yl)-piperazin-1-yl]-ethyl}-cyclohexyl)-2-(3-methyl-oxetan-3-yl)-acetamide], the Ki in test [1] was 11.1 nM; in test [2], 2.61 nM; in test [3], 307 nM.

Regarding `COC(CC(=O)N[C@H]1CC[C@H](CCN2CCN(c3noc4ccc(F)cc34)CC2)CC1)OC` [Example 26, N-trans-(4-{2-[4-(5-Fluoro-benzo[d]isoxazol-3-yl)-piperazin-1-yl]-ethyl}-cyclohexyl)-3,3-dimethoxy-propionamide], the results for the Ki in test [1], in test [2] and in test [3] were 15.9 nM, 2.12 nM and 761 nM, respectively.

Turning to `CCC(=O)N[C@H]1CC[C@H](CCN2CCN(c3noc4cc(C)ccc34)CC2)CC1` [Example 99, N-trans-(4-{2-[4-(6-Methyl-benzo[d]isoxazol-3-yl)-piperazin-1-yl]-ethyl}-cyclohexyl)-propionamide], the values for the Ki in test [1], in test [2] and in test [3] were 5.92 nM, 5.8 nM and 207 nM, respectively.

As to `CC(C)(O)CC(=O)N[C@H]1CC[C@H](CCN2CCN(c3noc4cc(Cl)ccc34)CC2)CC1` [Example 44, N-trans-(4-{2-[4-(6-Chloro-benzo[d]isoxazol-3-yl)-piperazin-l-yl]-ethyl}-cyclohexyl)-3-hydroxy-3-methyl-butyramide], the Ki was determined as 6.59 nM in test [1], 10.1 nM in test [2] and 325 nM in test [3].

As for `O=C(CC1CC1)N[C@H]1CC[C@H](CCN2CCN(c3noc4cc(F)c(Cl)cc34)CC2)CC1` [Example 75, N-trans-(4-{2-[4-(5-Chloro-6-fluoro-benzo[d]isoxazol-3-yl)-piperazin-1-yl]-ethyl}-cyclohexyl)-2-cyclopropyl-acetamide], the figures for the Ki in test [1], in test [2] and in test [3] were 5.92 nM, 1.65 nM and 1500 nM, respectively.

As for `CC(C)OC1CCC(CC(=O)N[C@H]2CC[C@H](CCN3CCN(c4noc5ccc(F)cc45)CC3)CC2)CC1` (mixture of isomers) [Example 10, N-trans-(4-{2-[4-(5-Fluoro-benzo[d]isoxazol-3-yl)-piperazin-1-yl]-ethyl}-cyclohexyl)-2-(4-isopropoxy-cyclohexyl)-acetamide], the Ki was found to be 10.4 nM in test [1], 6.6 nM in test [2] and 11500 nM in test [3].

Regarding `O=C(C[C@H]1C[C@H](CO)C1)N[C@H]1CC[C@H](CCN2CCN(c3noc4cc(F)c(Cl)cc34)CC2)CC1` [Example 79, N-trans-(4-{2-[4-(5-Chloro-6-fluoro-benzo[d]isoxazol-3-yl)-piperazin-1-yl]-ethyl}-cyclohexyl)-2-trans-(3-hydroxymethyl-cyclobutyl)-acetamide], the Ki came to 2.48 nM in test [1], 5.47 nM in test [2] and 6870 nM in test [3].

As for `O=C(N[C@H]1CC[C@H](CCN2CCN(c3noc4cc(Cl)ccc34)CC2)CC1)C1(O)CC1` [Example 38, 1-Hydroxy-cyclopropanecarboxylic acid N-trans-(4-{2-[4-(6-chloro-benzo[d]isoxazol-3-yl)-piperazin-1-yl]-ethyl}-cyclohexyl)-amide], the values for the Ki in test [1], in test [2] and in test [3] were 8.19 nM, 12.5 nM and 314 nM, respectively.

With `COC[C@H]1C[C@H](CC(=O)N[C@H]2CC[C@H](CCN3CCN(c4noc5cc(F)c(Cl)cc45)CC3)CC2)C1` [Example 80, N-trans-(4-{2-[4-(5-Chloro-6-fluoro-benzo[d]isoxazol-3-yl)-piperazin-1-yl]-ethyl}-cyclohexyl)-2-trans-(3-methoxymethyl-cyclobutyl)-acetamide], the Ki in test [1] was 2.98 nM; in test [2] it was 6.42 nM; in test [3] it was 11700 nM.

As for `O=C(N[C@H]1CC[C@H](CCN2CCN(c3noc4cc(F)c(Cl)cc34)CC2)CC1)c1ccc(Cl)s1` [Example 84, 5-Chloro-thiophene-2-carboxylic acid N-trans-(4-{2-[4-(5-chloro-6-fluoro-benzo[d]isoxazol-3-yl)-piperazin-1-yl]-ethyl}-cyclohexyl)-amide], the Ki in test [1] was found to be 7.11 nM; in test [2], 2.94 nM; in test [3] it was 258 nM.

Regarding `CC(=O)N[C@H]1CC[C@H](CCN2CCN(c3noc4ccccc34)CC2)CC1` [Example 2, N-trans-{4-[2-(4-benzo[d]isoxazol-3-yl-piperazin-1-yl)-ethyl]-cyclohexyl}-acetamide], the Ki in test [1] stood at 4.96 nM; in test [2], 8.88 nM; in test [3], 272 nM.

For the molecule `CC1(C)C[C@H](CC(=O)N[C@H]2CC[C@H](CCN3CCN(c4noc5ccc(F)cc45)CC3)CC2)CCO1` [Example 23, 2-((R)-2,2-Dimethyl-tetrahydro-pyran-4-yl)-N-(4-{2-[4-(5-fluoro-benzo[d]isoxazol-3-yl)-piperazin-1-yl]-ethyl}-cyclohexyl)-acetamide], the Ki in test [1] was found to be 26.8 nM; in test [2], 7.03 nM; in test [3] it was 1060 nM.

Consider `O=C(N[C@H]1CC[C@H](CCN2CCN(c3noc4cc(Cl)ccc34)CC2)CC1)C1CCOCC1` [Example 32, Tetrahydro-pyran-4-carboxylic acid N-trans-(4-{2-[4-(6-chloro-benzo[d]isoxazol-3-yl)-piperazin-1-yl]-ethyl}-cyclohexyl)-amide], for which the values for the Ki in test [1], in test [2] and in test [3] were 2.37 nM, 15.9 nM and 3040 nM, respectively.

Turning to `Cc1ccc2c(N3CCN(CC[C@H]4CC[C@H](NC(=O)CS(C)(=O)=O)CC4)CC3)noc2c1` [Example 105, 2-Methanesulfonyl-N-trans-(4-{2-[4-(6-methyl-benzo[d]isoxazol-3-yl)-piperazin-1-yl]-ethyl}-cyclohexyl)-acetamide], the inhibition constant (Ki) is 4 nM in test [1], 5 nM in test [2] and 170 nM in test [3].
